# Test system: 843782-103-R-J1-PDC complex spheroid viability
# Assay: Anticancer human tumor 843782-103-R-J1-PDC patient-derived lung adenocarcinoma cell line growth inhibition [RAS]
# Conditions: for IC50: curve of first compound; for viability, T/C: stronger effect = lower value
# Procedure, shortened: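 Agents were tested in combination matrices in half-log decrements from a top concentration at or near clinical Cmax (10 microM if undetermined). Targets were multi-cell spheroids of tumour lines plus HUVEC and MSC stromal cells.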
# 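Further: viability read after seven days of compound exposure.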
compound,measurement,setting,value
O=C(c1ccc(F)c(F)c1Nc1ccc(I)cc1F)N1CC(O)([C@@H]2CCCCN2)C1 + CCn1c(-c2cccnc2C(C)OC)c2c3cc(ccc31)N1CCOC(CC(NC(=O)C(C(C)C)N(C)C(=O)C3(F)CCN(C(=O)C#CC(C)(C)N(C)C)CC3)C(=O)N3CCCC(N3)C(=O)OCC(C)(C)C2)C1,IC50,second compound 0.000949 µM,18.2 nM
same,IC50,second compound 0.003 µM,17.4 nM
same,IC50,second compound 0.00949 µM,22 nM
same,IC50,second compound 0.03 µM,14.8 nM
same,IC50,second compound 0.0949 µM,24.3 nM
same,IC50,second compound 0.3 µM,16.2 nM
same,"viability, T/C","second compound 0.000949 µM, first compound 0.00316 µM",74.1%
same,"viability, T/C","second compound 0.000949 µM, first compound 0.01 µM",56.1%
same,"viability, T/C","second compound 0.000949 µM, first compound 0.0316 µM",42.7%
same,"viability, T/C","second compound 0.000949 µM, first compound 0.1 µM",31.9%
same,"viability, T/C","second compound 0.000949 µM, first compound 0.316 µM",20.1%
same,"viability, T/C","second compound 0.000949 µM, first compound 1 µM",11.8%
same,"viability, T/C","second compound 0.003 µM, first compound 0.00316 µM",72.2%
same,"viability, T/C","second compound 0.003 µM, first compound 0.01 µM",49.3%
same,"viability, T/C","second compound 0.003 µM, first compound 0.0316 µM",43.2%
same,"viability, T/C","second compound 0.003 µM, first compound 0.1 µM",35.1%
same,"viability, T/C","second compound 0.003 µM, first compound 0.316 µM",20.1%
same,"viability, T/C","second compound 0.003 µM, first compound 1 µM",9.69%
same,"viability, T/C","second compound 0.00949 µM, first compound 0.00316 µM",69.7%
same,"viability, T/C","second compound 0.00949 µM, first compound 0.01 µM",58%
same,"viability, T/C","second compound 0.00949 µM, first compound 0.0316 µM",47.1%
same,"viability, T/C","second compound 0.00949 µM, first compound 0.1 µM",30.9%
same,"viability, T/C","second compound 0.00949 µM, first compound 0.316 µM",19.2%
same,"viability, T/C","second compound 0.00949 µM, first compound 1 µM",11.9%
same,"viability, T/C","second compound 0.03 µM, first compound 0.00316 µM",58.6%
same,"viability, T/C","second compound 0.03 µM, first compound 0.01 µM",58.1%
same,"viability, T/C","second compound 0.03 µM, first compound 0.0316 µM",38.9%
same,"viability, T/C","second compound 0.03 µM, first compound 0.1 µM",27.9%
same,"viability, T/C","second compound 0.03 µM, first compound 0.316 µM",20.1%
same,"viability, T/C","second compound 0.03 µM, first compound 1 µM",12.3%
same,"viability, T/C","second compound 0.0949 µM, first compound 0.00316 µM",75%
same,"viability, T/C","second compound 0.0949 µM, first compound 0.01 µM",61.4%
same,"viability, T/C","second compound 0.0949 µM, first compound 0.0316 µM",43.7%
same,"viability, T/C","second compound 0.0949 µM, first compound 0.1 µM",36.5%
same,"viability, T/C","second compound 0.0949 µM, first compound 0.316 µM",22.9%
same,"viability, T/C","second compound 0.0949 µM, first compound 1 µM",11.7%
same,"viability, T/C","second compound 0.3 µM, first compound 0.00316 µM",62.9%
same,"viability, T/C","second compound 0.3 µM, first compound 0.01 µM",59.7%
same,"viability, T/C","second compound 0.3 µM, first compound 0.0316 µM",38.2%
same,"viability, T/C","second compound 0.3 µM, first compound 0.1 µM",26.8%
same,"viability, T/C","second compound 0.3 µM, first compound 0.316 µM",23.2%
same,"viability, T/C","second compound 0.3 µM, first compound 1 µM",13.9%
NC1c2ccccc2OC12CCN(c1cnc3c(N4CCCc5ncccc54)n[nH]c3n1)CC2 (centres undefined) + C#Cc1c(F)ccc2cc(O)cc(-c3ncc4c(N5CC6CCC(C5)N6)nc(OCC56CCCN5CC(F)C6)nc4c3F)c12,IC50,second compound 0.0316 µM,1160 nM
same,IC50,second compound 0.1 µM,642 nM
same,IC50,second compound 0.316 µM,231 nM
same,IC50,second compound 1 µM,72.1 nM
same,IC50,second compound 3.16 µM,< 31.6 nM
same,IC50,second compound 10 µM,< 31.6 nM
same,"viability, T/C","second compound 0.0316 µM, first compound 0.0316 µM",92.1%
same,"viability, T/C","second compound 0.0316 µM, first compound 0.1 µM",81.1%
same,"viability, T/C","second compound 0.0316 µM, first compound 0.316 µM",60.6%
same,"viability, T/C","second compound 0.0316 µM, first compound 1 µM",53%
same,"viability, T/C","second compound 0.0316 µM, first compound 3.16 µM",40.9%
same,"viability, T/C","second compound 0.0316 µM, first compound 10 µM",25.8%
same,"viability, T/C","second compound 0.1 µM, first compound 0.0316 µM",87.8%
same,"viability, T/C","second compound 0.1 µM, first compound 0.1 µM",69.8%
same,"viability, T/C","second compound 0.1 µM, first compound 0.316 µM",54.9%
same,"viability, T/C","second compound 0.1 µM, first compound 1 µM",46.2%
same,"viability, T/C","second compound 0.1 µM, first compound 3.16 µM",37.9%
same,"viability, T/C","second compound 0.1 µM, first compound 10 µM",22.5%
same,"viability, T/C","second compound 0.316 µM, first compound 0.0316 µM",82%
same,"viability, T/C","second compound 0.316 µM, first compound 0.1 µM",61.8%
same,"viability, T/C","second compound 0.316 µM, first compound 0.316 µM",42.8%
same,"viability, T/C","second compound 0.316 µM, first compound 1 µM",37.2%
same,"viability, T/C","second compound 0.316 µM, first compound 3.16 µM",29.4%
same,"viability, T/C","second compound 0.316 µM, first compound 10 µM",21.2%
same,"viability, T/C","second compound 1 µM, first compound 0.0316 µM",69%
same,"viability, T/C","second compound 1 µM, first compound 0.1 µM",38.5%
same,"viability, T/C","second compound 1 µM, first compound 0.316 µM",32.9%
same,"viability, T/C","second compound 1 µM, first compound 1 µM",26.8%
same,"viability, T/C","second compound 1 µM, first compound 3.16 µM",21.3%
same,"viability, T/C","second compound 1 µM, first compound 10 µM",14.9%
same,"viability, T/C","second compound 3.16 µM, first compound 0.0316 µM",43.3%
same,"viability, T/C","second compound 3.16 µM, first compound 0.1 µM",25.7%
same,"viability, T/C","second compound 3.16 µM, first compound 0.316 µM",22.9%
same,"viability, T/C","second compound 3.16 µM, first compound 1 µM",18.8%
same,"viability, T/C","second compound 3.16 µM, first compound 3.16 µM",21.1%
same,"viability, T/C","second compound 3.16 µM, first compound 10 µM",15.9%
same,"viability, T/C","second compound 10 µM, first compound 0.0316 µM",30.3%
same,"viability, T/C","second compound 10 µM, first compound 0.1 µM",16.4%
same,"viability, T/C","second compound 10 µM, first compound 0.316 µM",24%
same,"viability, T/C","second compound 10 µM, first compound 1 µM",19.1%
same,"viability, T/C","second compound 10 µM, first compound 3.16 µM",17.5%
same,"viability, T/C","second compound 10 µM, first compound 10 µM",9.27%
